EC50 and IC50 data for 19 molecules are collected here from EP2121694B1, “CYCLOPROPYL FUSED INDOLOBENZAZEPINE HCV NS5B INHIBITORS” (Bristol-Myers Squibb Company, priority 2007, dated 2008).

The EC50 is the midpoint of the concentration-response curve. What is called IC50 is the concentration at which inhibition is half-maximal. Higher therefore signals lower potency.

Read-outs that look alike come from different tables or passages of the source.

Assay [1] deals with HCV replicon. The assay can be described thus: HCV FRET screening assay in HCV replicon cells. The format is cell-based. Conditions: Hepatitis C virus. The source says: FRET Assay Preparation. To perform the HCV FRET screening assay, 96-well cell culture plates were used. The FRET peptide (Anaspec, Inc.) (Taliani et al., Anal. Biochem. 1996, 240, 60-67) contains a fluorescence donor, EDANS, near one end of the peptide and an acceptor, DABCYL, near the other end. The fluorescence of the peptide is quenched by […] resonance energy transfer (RET) between the donor and the acceptor, but as the NS3 protease cleaves the peptide the products are released from RET quenching and the fluorescence of the donor becomes apparent. The assay reagent was made as follows: 5X cell Luciferase cell culture lysis reagent from Promega (#E153A) diluted to 1X with dH2O, NaCl added to 150 mM final, the FRET peptide diluted to 20 uM final from a 2 mM stock.
To prepare plates, HCV replicon cells, with or without a Renilla luciferase reporter gene, were trypsinized and placed into each well of a 96-well plate with titrated test compounds added in columns 3 through 12; columns 1 and 2 contained a control compound (HCV protease inhibitor), and the bottom row contained cells without compound. The plates were then placed in a CO2 incubator at 37 °C.
Assays. Subsequent to addition of the test compounds described above (FRET Assay Preparation), at various times the plate was removed and Alamar blue solution (Trek Diagnostics, #00-100) was added per well as a measure of cellular toxicity. After reading in a Cytoflour 4000 instrument (PE Biosystems), plates were rinsed with PBS and then used for FRET assay by the addition of 30 ul of the FRET peptide assay reagent described above (FRET Assay Preparation) per well. The plate was then placed into the Cytoflour 4000 instrument which had been set to 340 excite/490 emission, automatic mode for 20 cycles and the plate read in a kinetic mode. Typically, the signal to noise using an endpoint analysis after the reads was at least three-fold. Alternatively, after Alamar blue reading, plates were rinsed with PBS, 50 ul of DMEM (high glucose) without phenol red was added and plates were then used for luciferase assay using the Promega Dual-Glo Luciferase Assay System.
Compound analysis was determined by quantification of the relative HCV replicon inhibition and the relative cytotoxicity values. To calculate cytoxicity values, the average Alamar Blue fluorescence signals from the control wells were set as 100% non-toxic. The individual signals in each of the compound test wells were then divided by the average control signal and multiplied by 100% to determine […]. To calculate the HCV replicon inhibition values, an average background value was obtained from the two wells containing the highest amount of HCV protease inhibitor at the end of the assay period. These numbers were similar to those obtained from naïve Huh-7 cells.
The background numbers were then subtracted from the average signal obtained from the control wells and this number was used as 100% activity. The individual signals in each of the compound test wells were then divided by the averaged control values after background subtraction and multiplied by 100% to determine percent activity. EC50 values for a protease inhibitor titration were calculated as the concentration which caused a 50% reduction in FRET or luciferase activity. The two numbers generated for the compound plate, percent cytoxicity and percent activity were used to determine compounds of interest for further analysis.

The target in assay [2] is T1, HCV NS5B (Hepatitis C virus genotype 1b, UniProt Q9WMX2).
T1 construct: The protein was expressed with an 18 amino acid C-terminal truncation to enhance the solubility; made in house; host or cells: E. coli BL21(DE3), pET21a vector
The assay can be described thus: Modified HCV NS5B RdRp enzyme assay (preincubation protocol). In kind it is biochemical. Conditions: HCV NS5B RdRp genotype 1b. Here is the method:
HCV NS5B RdRp cloning, expression, and purification. The cDNA encoding the NS5B protein of HCV, genotype 1b, was cloned into the pET21a expression vector. The protein was expressed with an 18 amino acid C-terminal truncation to enhance the solubility. The E. coli competent cell line BL21(DE3) was used for expression of the protein. Cultures were grown at 37 °C for ∼ 4 hours until the cultures reached an optical density of 2.0 at 600 nm. The cultures were cooled to 20 °C and induced with 1 mM IPTG. Fresh ampicillin was added to a final concentration of 50 µg/ml and the cells were grown overnight at 20 °C.
Cell pellets (3L) were lysed for purification to yield 15-24 mgs of purified NS5B. The lysis buffer consisted of 20 mM Tris-HCl, pH 7.4, 500 mM NaCl, 0.5% triton X-100, 1 mM DTT, 1mM EDTA, 20% glycerol, 0.5 mg/ml lysozyme, 10 mM MgCl2, 15 ug/ml deoxyribonuclease I, and Complete TM protease inhibitor tablets (Roche). After addition of the lysis buffer, frozen cell pellets were resuspended using a tissue homogenizer. To reduce the viscosity of the sample, aliquots of the lysate were sonicated on ice using a microtip attached to a Branson sonicator. The sonicated lysate was centrifuged at 100,000 x g for 1hr at 4 °C and filtered through a 0.2 µm filter unit (Corning).
The protein was purified using three sequential chromatography steps: Heparin sepharose CL-6B, polyU sepharose 4B, and Hitrap SP sepharose (Pharmacia). The chromatography buffers were identical to the lysis buffer but contained no lysozyme, deoxyribonuclease I, MgCl2 or protease inhibitor and the NaCl concentration of the buffer was adjusted according to the requirements for charging the protein onto the column. Each column was eluted with a NaCl gradient which varied in length from 5-50 column volumes depending on the column type. After the final chromatography step, the resulting purity of the enzyme is >90% based on SDS-PAGE analysis. The enzyme was aliquoted and stored at -80 °C.
Standard HCV NS5B RdRp enzyme assay. HCV RdRp genotype 1b assays were run in a final volume of 60 µl in 96 well plates (Costar 3912). The assay buffer is composed of 20 mM Hepes, pH 7.5, 2.5 mM KCl, 2.5 mM MgCl2, 1 mM DTT, 1.6 U RNAse inhibitor (Promega N2515), 0.1 mg/ml BSA (Promega R3961), and 2 % glycerol. All compounds were serially diluted (3-fold) in DMSO and diluted further in water such that the final concentration of DMSO in the assay was 2%. HCV RdRp genotype 1b enzyme was used at a final concentration of 28 nM. A polyA template was used at 6 nM, and a biotinylated oligo-dT12 primer was used at 180 nM final concentration. Template was obtained commercially (Amersham 27-4110). Biotinylated primer was prepared by Sigma Genosys. 3H-UTP was used at 0.6 µCi (0.29 µM total UTP). Reactions were initiated by the addition of enzyme, incubated at 30 °C for 60 min, and stopped by adding 25 µl of 50 mM EDTA containing SPA beads (4 µg/µl, Amersham RPNQ 0007). Plates were read on a Packard Top Count NXT after >1hr incubation at room temperature.
Modified HCV NS5B RdRp enzyme assay. A modified enzyme assay was performed essentially as described for the standard enzyme assay except for the following: The biotinylated oligo dT12 primer was precaptured on streptavidin-coated SPA beads by mixing primer and beads in assay buffer and incubating at room temperature for one hour. Unbound primer was removed after centrifugation. The primer-bound beads were resuspended in 20 mM Hepes buffer, pH 7.5 and used in the assay at final concentrations of 20 nM primer and 0.67 µg/µl beads. Order of addition in the assay: enzyme (14 nM) was added to diluted compound followed by the addition of a mixture of template (0.2 nM) , 3H-UTP (0.6 µCi, 0.29 µM), and primer-bound beads, to initiate the reaction; concentrations given are final. Reactions were allowed to proceed for 4 hours at 30° C.
IC50 values for compounds were determined using seven different [I]. […]

The mark [3] stands for this setting: HCV replicon cells, FRET assay, read-out: EC50.

T1 sequence (Q9WMX2 2420-2992): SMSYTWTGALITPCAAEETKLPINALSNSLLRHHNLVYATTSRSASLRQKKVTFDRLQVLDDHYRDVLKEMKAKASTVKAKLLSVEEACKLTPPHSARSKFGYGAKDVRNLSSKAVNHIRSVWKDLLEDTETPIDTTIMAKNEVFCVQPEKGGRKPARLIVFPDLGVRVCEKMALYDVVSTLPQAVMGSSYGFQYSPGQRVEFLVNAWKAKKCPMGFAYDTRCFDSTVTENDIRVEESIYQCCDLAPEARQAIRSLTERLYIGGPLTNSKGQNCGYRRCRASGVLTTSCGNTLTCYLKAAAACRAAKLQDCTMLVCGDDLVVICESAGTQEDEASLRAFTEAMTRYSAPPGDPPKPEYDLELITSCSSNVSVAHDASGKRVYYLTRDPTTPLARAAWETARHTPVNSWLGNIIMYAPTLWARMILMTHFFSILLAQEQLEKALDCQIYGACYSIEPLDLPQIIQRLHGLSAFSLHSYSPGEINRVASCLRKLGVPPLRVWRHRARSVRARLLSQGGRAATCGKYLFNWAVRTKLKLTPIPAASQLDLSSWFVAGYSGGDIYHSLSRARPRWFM

In assay [1], `COc1ccc2c(c1)C1CC1(C(=O)N1CC(C)OC(C)C1)Cn1c-2c(C2CCCCC2)c2ccc(C(=O)NS(C)(=O)=O)cc21` (centres unmarked) displayed a concentration for a half-maximal effect (EC50) of 97 to 1000 nM. This molecule returned an IC50 in assay [2] of 97 to 1000 nM.
In the case of `COc1cccc2c1C1CC1(C(=O)N1C[C@@H](C)O[C@@H](C)C1)Cn1c-2c(C2CCCCC2)c2ccc(C(=O)NS(=O)(=O)N(C)C)cc21` (some centres unmarked), the EC50 in assay [1] (setting [3]) lay in the range of 97 to 1000 nM. In assay [2], this molecule had an IC50 of 97 to 1000 nM.
Take `C[C@@H]1CN(C(=O)C23CC2c2c(OC(F)(F)F)cccc2-c2c(C4CCCCC4)c4ccc(C(=O)O)cc4n2C3)C[C@H](C)O1` (some centres unmarked): the EC50 in assay [1] (setting [3]) lay within 97 to 1000 nM. Further, the IC50 in assay [2] fell in the range of 97 to 1000 nM.
As to `COc1ccc2c(c1)C1CC1(C(=O)N1CCOC[C@H]1CO)Cn1c-2c(C2CCCCC2)c2ccc(C(=O)NS(=O)(=O)N(C)C)cc21` (some centres unmarked), the 50% effective concentration (EC50) in assay [1] (setting [3]) fell in the range of 97 to 1000 nM. Also, the IC50 in assay [2] fell in the range of 97 to 1000 nM.
Take `C[C@@H]1CN(C(=O)C23CC2c2c(OC(F)(F)F)cccc2-c2c(C4CCCCC4)c4ccc(C(=O)NS(=O)(=O)N(C)C)cc4n2C3)C[C@H](C)O1` (some centres unmarked): in assay [1] (setting [3]), the EC50 lay within 97 to 1000 nM. In addition, in assay [2], the IC50 lay within 97 to 1000 nM.
For the molecule `COc1ccc2c(c1)C1CC1(C(=O)N(C)CCN(C)C)Cn1c-2c(C2CCCCC2)c2ccc(C(=O)NS(=O)(=O)N(C)C)cc21` (centres unmarked), the EC50 in assay [1] (setting [3]) was 97 to 1000 nM. This molecule displayed an IC50 in assay [2] of 97 to 1000 nM.
On to `CCN(CC)CCN(C)C(=O)C12CC1c1cc(OC)ccc1-c1c(C3CCCCC3)c3ccc(C(=O)NS(=O)(=O)N(C)C)cc3n1C2` (centres unmarked), for which, in assay [1] (setting [3]), the EC50 was in the range of 97 to 1000 nM. This molecule came in with an IC50 in assay [2] of 97 to 1000 nM.
In the case of `COc1cccc2c1C1CC1(C(=O)N1C[C@@H](C)N[C@@H](C)C1)Cn1c-2c(C2CCCCC2)c2ccc(C(=O)NS(=O)(=O)N(C)C)cc21` (some centres unmarked), the 50% effective concentration (EC50) in assay [1] (setting [3]) lay in the range of 97 to 1000 nM. The IC50 in assay [2] lay within 97 to 1000 nM.
Turning to `COc1ccc2c(c1)C1CC1(C(=O)N1CC[C@H](N(C)C)C1)Cn1c-2c(C2CCCCC2)c2ccc(C(=O)NS(=O)(=O)N(C)C)cc21` (some centres unmarked), the concentration for a half-maximal effect (EC50) in assay [1] (setting [3]) lay in the range of 97 to 1000 nM. Also, the IC50 in assay [2] lay within 97 to 1000 nM.
For `COc1ccc2c(c1)C1CC1(C(=O)N1CCC(C)(O)CC1)Cn1c-2c(C2CCCCC2)c2ccc(C(=O)NS(N)(=O)=O)cc21` (centres unmarked), the EC50 in assay [1] (setting [3]) is 97 to 1000 nM. The same molecule yielded an IC50 in assay [2] of 97 to 1000 nM.
For `CCN(CC)CCN(CCN(CC)CC)C(=O)C12CC1c1cc(OC)ccc1-c1c(C3CCCCC3)c3ccc(C(=O)NS(=O)(=O)N(C)C)cc3n1C2` (centres unmarked), in assay [1] (setting [3]), the concentration giving a half-maximal response (EC50) is 97 to 1000 nM. This molecule displayed an IC50 in assay [2] of 97 to 1000 nM.
Regarding `COC(=O)C12CC1c1cc(O)ccc1-c1c(C3CCCCC3)c3ccc(C(=O)OC(C)(C)C)cc3n1C2` (centres unmarked), the EC50 in assay [1] (setting [3]) is greater than 1000 nM. Besides, in assay [2], the IC50 fell in the range of 1000 to 10000 nM.
Taken in the same sequence, the figures for `COc1ccc2c(c1)C1CC1(C(=O)N1CCCN(C)CC1)Cn1c-2c(C2CCCCC2)c2ccc(C(=O)NS(=O)(=O)N(C)C)cc21` (centres unmarked) [drawing 58] were 97 to 1000 nM and 97 to 1000 nM.
Taken in the same sequence, the figures for `COc1ccc2c(c1)C1CC1(C(=O)N1CCCN(C)CC1)Cn1c-2c(C2CCCCC2)c2ccc(C(=O)NS(=O)(=O)C(C)C)cc21` (centres unmarked) were greater than 120 nM and 97 to 1000 nM.
In the case of `COc1ccc2c(c1)C1CC1(C(=O)N1CCN(c3ccccn3)CC1)Cn1c-2c(C2CCCCC2)c2ccc(C(=O)NS(=O)(=O)C3CC3)cc21` (centres unmarked), the concentration for a half-maximal effect (EC50) in assay [1] (setting [3]) lay in the range of 97 to 1000 nM. Further, the half-inhibitory concentration (IC50) in assay [2] lay within 97 to 1000 nM.
`COc1ccc2c(c1)C1CC1(C(=O)N1CCC(C)(O)CC1)Cn1c-2c(C2CCCCC2)c2ccc(C(=O)NS(C)(=O)=O)cc21` (centres unmarked): the concentration for a half-maximal effect (EC50) in assay [1] (setting [3]) lay in the range of 97 to 1000 nM. The same molecule gave an IC50 in assay [2] of 97 to 1000 nM.
Regarding `COC(=O)c1ccc2c(C3CCCCC3)c3n(c2c1)CC1(C(=O)OC)CC1c1c(OC(F)(F)F)cccc1-3` (centres unmarked), the EC50 in assay [1] (setting [3]) was greater than 120 nM. Also, the half-inhibitory concentration (IC50) in assay [2] was greater than 10000 nM.
Taken in the same sequence, the figures for `COc1ccc2c(c1)C1CC1(C(=O)N1CCC(F)(F)CC1)Cn1c-2c(C2CCCCC2)c2ccc(C(=O)NS(=O)(=O)N(C)C)cc21` (centres unmarked) were 97 to 1000 nM and 97 to 1000 nM.
Consider `COc1ccc2c(c1)C1CC1(C(=O)N1CCCNCC1)Cn1c-2c(C2CCCCC2)c2ccc(C(=O)NS(=O)(=O)N(C)C)cc21` (centres unmarked), for which the EC50 in assay [1] (setting [3]) was in the range of 97 to 1000 nM. For the same molecule, in assay [2], the half-maximal inhibitory concentration (IC50) was 97 to 1000 nM.
